Values joined by “and” are separate entries in the source; they are usually repeats but may differ in a detail not shown here. Equal values may be shown once.
Key:
Ole1 = molecular target: T1, Ole1 (Saccharomyces cerevisiae, UniProt P21147); assay: Growth inhibition of yeast strain expressing Ole1 as sole desaturase; type: cell-based; details: yeast strain expressing Ole1 as sole desaturase
T1 construct: expressed in transfected cells; host or cells: S. cerevisiae ole1Δ strain (W303 pdr1Δ pdr3Δ background), plasmid pRS316 with TDH3 promoter and CYC1 terminator
T1 sequence (P21147 1-510): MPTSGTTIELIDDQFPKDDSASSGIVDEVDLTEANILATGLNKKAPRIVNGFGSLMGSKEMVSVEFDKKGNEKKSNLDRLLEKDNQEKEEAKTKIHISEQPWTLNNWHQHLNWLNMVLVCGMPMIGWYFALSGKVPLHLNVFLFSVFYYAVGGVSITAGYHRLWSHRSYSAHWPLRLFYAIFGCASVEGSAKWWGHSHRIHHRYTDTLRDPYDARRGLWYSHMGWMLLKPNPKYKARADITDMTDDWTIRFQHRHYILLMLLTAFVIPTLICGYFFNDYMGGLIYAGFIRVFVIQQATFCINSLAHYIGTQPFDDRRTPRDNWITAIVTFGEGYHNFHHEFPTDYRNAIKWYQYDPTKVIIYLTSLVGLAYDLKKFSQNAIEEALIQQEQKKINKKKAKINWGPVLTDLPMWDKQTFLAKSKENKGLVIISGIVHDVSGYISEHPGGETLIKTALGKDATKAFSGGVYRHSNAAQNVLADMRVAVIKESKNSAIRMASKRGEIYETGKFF
How it was run: (§1)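 ole1Δ yeast (W303 pdr1Δ pdr3Δ background) carrying plasmid-borne Ole1, SCD1 or SCD5, grown in uracil-free media; cultures pre-grown in raffinose, seeded at 2× density 0.02 in galactose media with compound. Growth read as OD600 after 24 h at 30° C. for Ole1, 40 h for SCD1/SCD5.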

SCD1 = molecular target: T2, SCD1 (Homo sapiens, UniProt O00767); assay: Growth inhibition of humanized yeast strain expressing SCD1 as sole desaturase; type: cell-based; details: humanized yeast strain expressing SCD1
T2 construct: host or cells: S. cerevisiae ole1Δ strain (W303 pdr1Δ pdr3Δ background), plasmid pRS316 with TDH3 promoter and CYC1 terminator
T2 sequence (O00767 1-359): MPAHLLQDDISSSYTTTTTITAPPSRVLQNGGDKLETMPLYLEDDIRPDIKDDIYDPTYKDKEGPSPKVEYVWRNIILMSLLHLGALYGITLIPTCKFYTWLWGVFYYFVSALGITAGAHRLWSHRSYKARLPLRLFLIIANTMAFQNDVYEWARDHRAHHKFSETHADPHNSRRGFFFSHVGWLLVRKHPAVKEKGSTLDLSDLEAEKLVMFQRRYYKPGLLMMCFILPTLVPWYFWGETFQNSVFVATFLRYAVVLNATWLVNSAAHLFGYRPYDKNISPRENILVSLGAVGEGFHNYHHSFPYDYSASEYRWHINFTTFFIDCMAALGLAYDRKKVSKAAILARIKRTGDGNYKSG
How it was run: as §1

[1] = tested on: yeast strains expressing the human α-synuclein; assay: Yeast α-synuclein toxicity rescue assay (OD600 growth); details: 40 h; for EC50: read-out: α-Syn EC50; for Emax: read-out: α-Syn Emax
SCD5 = molecular target: T3, SCD5 (Homo sapiens, UniProt Q86SK9); assay: Growth inhibition of humanized yeast strain expressing SCD5 as sole desaturase; type: cell-based; details: humanized yeast strain expressing SCD5
T3 construct: host or cells: S. cerevisiae ole1Δ strain (W303 pdr1Δ pdr3Δ background), plasmid pRS316 with TDH3 promoter and CYC1 terminator
T3 sequence (Q86SK9 1-330): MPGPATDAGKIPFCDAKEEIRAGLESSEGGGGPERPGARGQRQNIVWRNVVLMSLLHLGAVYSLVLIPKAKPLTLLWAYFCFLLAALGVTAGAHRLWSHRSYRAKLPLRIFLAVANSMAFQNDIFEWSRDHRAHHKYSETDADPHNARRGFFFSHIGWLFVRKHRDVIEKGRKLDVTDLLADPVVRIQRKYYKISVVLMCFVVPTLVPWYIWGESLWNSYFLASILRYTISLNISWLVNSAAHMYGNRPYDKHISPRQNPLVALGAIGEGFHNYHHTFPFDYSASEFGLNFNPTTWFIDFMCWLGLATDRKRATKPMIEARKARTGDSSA
How it was run: as §1

Compound	IC50 (Ole1)	OLE1 % Max Inhibition (Ole1)	IC50 (SCD1)	SCD1 % Max Inhibition (SCD1)	EC50 [1]	Emax [1]	IC50 (SCD5)	SCD5 % Max Inhibition (SCD5)
COc1ccc(-c2noc(C3CCN(C(=O)CNC(=O)N4CCCCC4)CC3)n2)cc1OC [Compound 143]	> 45 µM	95.01%	> 45 µM	79.38%	16.9 µM	73%	> 45 µM	96.06%
Cc1noc2cc(-c3noc(C4CCN(C(=O)C5CC(=O)N(c6ccccc6)C5)CC4)n3)ccc12 (stereo not drawn) [Compound 136]	> 45 µM	73.60%	> 45 µM	34.33%	4.08 µM	67%	> 45 µM	17.07%
Cn1c(=O)n(C)c2cc(-c3noc(C4CCN(C(=O)CNC(=O)c5ccccc5)CC4)n3)ccc21 [Compound 122]	> 45 µM	109.89%	> 45 µM	92.73%	0.139 µM	414%	> 45 µM	90.04%
CCOc1ccc(-c2noc(C3CCN(C(=O)C(C)N4Cc5ccccc5C4=O)CC3)n2)cc1OC (stereo not drawn) [Compound 140]	> 45 µM	3.96% and 4.98%	> 45 µM	77.37% and 75.00%	0.049 µM	322%		3.46% and 10.16%
Cc1nn(C)c2nc(-c3noc(C4CCN(C(=O)C5CC(=O)N(c6ccccc6)C5)CC4)n3)ccc12 (stereo not drawn) [Compound 116]	> 45 µM	12.75%	> 45 µM	71.12%	9.04 µM	345%	> 45 µM	8.35%
Cc1n[nH]c2cc(-c3noc(C4CCN(C(=O)CNC(=O)c5ccccc5)CC4)n3)ccc12 [compound 93]	> 45 µM		> 45 µM		1.8 µM	626%	> 45 µM	
CCOc1ccc(-c2noc(C3CCN(C(=O)C4CC(=O)N(c5ccccc5)C4)CC3)n2)nc1OC (stereo not drawn) [Compound 108]	> 45 µM	72.04%	> 45 µM	72.79%	11.1 µM	316%	> 45 µM	64.66%
Cn1ncc2ccc(-c3noc(C4CCN(C(=O)CNC(=O)c5ccccc5)CC4)n3)cc21 [compound 94]	> 45 µM		> 45 µM		0.04 µM		39.3 µM	
COc1ccc(-c2noc(C3CCN(C(=O)c4ccc(C(C)C)cc4)CC3)n2)cc1OC [Compound 127]	> 45 µM	99.27%	> 45 µM	66.46%	7.42 µM	349%	> 45 µM	88.59%
CCOc1ccc(-c2noc(C3CCN(C(=O)CNC(=O)c4ccccc4)CC3)n2)nc1OC [Compound 107]	> 45 µM	4.55%	> 45 µM	73.32%	2.9 µM	312%	> 45 µM	74.80%
Cc1nn(C)c2cc(-c3noc(C4CCN(C(=O)CNC(=O)c5ccccc5)CC4)n3)ccc12 [Compound 40]	> 45 µM	1.26% and 0.80% and 4.9%	> 45 µM	41.70% and 47.19% and 57.7%	0.086 µM	443%	> 45 µM	
COc1ccccc1C(=O)NCC(=O)N1CCC(c2nc(-c3ccc4c(C)nn(C)c4c3)no2)CC1 [Compound 152]	> 45 µM	2.37%	> 45 µM	83.39%	0.134 µM	474%	> 45 µM	60.91%
CCOc1ccc(-c2noc(N3CCC(C(=O)N4CCN(C)C(c5ccccc5)C4)CC3)n2)cc1OC (stereo not drawn) [Compound 113]	> 45 µM	5.55%	40.7 µM	55.33%	15.6 µM	55%	> 45 µM	27.28%
Cc1nnc(C)c2cc(-c3noc(C4CCN(C(=O)CNC(=O)c5ccccc5)CC4)n3)ccc12 [Compound 105]	> 45 µM	34.19%	> 45 µM	41.38%	3.18 µM	391%	> 45 µM	13.93%
Cc1nn(C)c2nc(-c3noc(C4CCN(C(=O)CN5Cc6ccccc6C5=O)CC4)n3)ccc12 [Compound 146]	> 45 µM	3.28%	37.8 µM	60.81%	1.94 µM	516%	> 45 µM	25.62%
CCOc1cnc(-c2noc(C3CCN(C(=O)CN4Cc5ccccc5C4=O)CC3)n2)cc1OC [Compound 147]	> 45 µM	9.34%	> 45 µM	74.14%	17.9 µM	453%	> 45 µM	86.70%
O=C(NCC(=O)N1CCC(c2nc(-c3ccc4cn[nH]c4c3)no2)CC1)c1ccccc1 [compound 88]	> 45 µM		33.5 µM		9.04 µM	130%	> 45 µM	
COc1ccc(-c2noc(C3CCN(CCNC(=O)c4ccccc4)CC3)n2)cc1OC [Compound 32]	> 45 µM	108.22%	> 45 µM	84.16%	9.88 µM	41%	> 45 µM	80.17%
